Consider four molecules from patent publication US5393774A, “Phenylethanolamines, pharmaceutical compositions containing these compounds and process for preparing them” (priority 1990, dated 1995).

Where two headings read alike, the source gives them in different places.

For this experiment, the system named is bronchospasm triggered by intravenous administration of 20 μg/kg of acetyl-choline. Nature of the experiment: broncholytic effect, test arrangement according to KONZETT and ROSSLER on anesthetized guinea-pigs. The conditions noted are these: Cavia porcellus, read-out: ED50 (broncholytic effect, reduction in acetyl-choline bronchospasm). It is filed as in vivo.

The mark [1] stands for this setting: after i.v. administration, anesthetized guinea-pigs, 20 μg/kg acetyl-choline i.v., linear regression analysis.

Procedure: The broncholytic effect was investigated by the test arrangement according to KONZETT and ROSSLER (Arch. exp. Path. Pharmak. 195, 71 (1940)) on anesthetized guinea-pigs. An ED50 was calculated from the average percentage reduction, achieved with the various intravenous doses, in the bronchospasm triggered by intravenous administration of 20 μg/kg of acetyl-choline, by linear regression analysis according to LINDER (Statistische Methoden, 4th Edition, pp. 148-162, Birkhauser, Basel 1964):

For the molecule `CCOC(=O)Nc1c(F)cc(C(O)CNCCCCCCOCCCCc2ccccc2)cc1C#N.Cl` (stereo not shown) [Substance A, 1-(4-ethoxycarbonylamino-3-cyano-5-fluoro-phenyl)-2-[6-(4-phenyl-butoxy)hexylamino]-ethanol-hydrochloride], the ED50 under setting [1] was determined as 10.2 µg/kg.

As for `Cl.N#Cc1cc(C(O)CNCCCCCCOCCCCc2ccccc2)cc(F)c1N` (stereo not shown) [Substance B, 1-(4-amino-3-cyano-5-fluoro-phenyl)-2-[6-(4-phenylbutoxy)-hexyl-amino]ethanol-hydrochloride], the ED50 under setting [1] came out at 2.5 µg/kg.

In the case of `COc1ccc(CC(C)NCC(O)c2cc(F)c(N)c(C#N)c2)cc1.Cl` (stereo not shown) [Substance C, 1-(4-amino-3-cyano-5-fluoro-phenyl)-2-[2-(4-methoxyphenyl)-1-methyl-ethylamino]-ethanol-hydrochloride], the ED50 was determined as 0.16 µg/kg.

As to `Nc1c(Cl)cc(C(O)CNCCCCCCOCCCCc2ccccc2)cc1Cl` (stereo not shown) [V], the ED50 under setting [1] was above 400 µg/kg.

Broadly, the ED50 is the dose at which the effect has come halfway, by size or by number of responders.
